Experimental data reported in ChEMBL document CHEMBL1177675, “Synthesis and antiproliferative evaluation of certain iminonaphtho[2,3-b]furan derivatives” (Bioorg Med Chem, 2010).

Tested on: SF-268
Experiment: Cytotoxicity against human SF268 cells after 72 hrs by XTT assay
Type: functional
Conditions: SF-268, 72 h

Row | Compound | GI50 [µM]
1 | CC[C@@]1(O)C(=O)OCc2c1cc1n(c2=O)Cc2cc3ccccc3nc2-1 [CAMPTOTHECIN] | 0.19
2 | CC(=O)O/N=C1/c2ccccc2C(=O)c2occc21 | 7.9
3 | O=C1c2ccccc2C(=O)c2occc21 | 5.65
4 | COc1cccc2c1C(=O)c1c(O)c3c(c(O)c1C2=O)C[C@@](O)(C(C)=O)C[C@@H]3O[C@H]1C[C@H](N)[C@H](O)[C@H](C)O1 [DAUNORUBICIN] | 0.6
5 | O=C1c2ccccc2/C(=N/O)c2ccoc21 | 8.85
6 | Br.NCCCO/N=C1/c2ccccc2C(=O)c2occc21 | 9.02

Tested on: MCF7
Experiment: Selectivity index, ratio of GI50 for human Detroit 551 cells to GI50 for human MCF7 cells
Type: functional
Conditions: not given

Row | Compound | RatioGI50
7 | CC[C@@]1(O)C(=O)OCc2c1cc1n(c2=O)Cc2cc3ccccc3nc2-1 [CAMPTOTHECIN] | 1.74
8 | CC(=O)O/N=C1/c2ccccc2C(=O)c2occc21 | >7.51
9 | O=C1c2ccccc2C(=O)c2occc21 | 2.5
10 | COc1cccc2c1C(=O)c1c(O)c3c(c(O)c1C2=O)C[C@@](O)(C(C)=O)C[C@@H]3O[C@H]1C[C@H](N)[C@H](O)[C@H](C)O1 [DAUNORUBICIN] | 2.06
11 | O=C1c2ccccc2/C(=N/O)c2ccoc21 | >8.13
12 | Br.NCCCO/N=C1/c2ccccc2C(=O)c2occc21 | 3.24

Tested on: K562
Experiment: Cell cycle arrest in human K562 cells assessed as accumulation at G0/G1 phase at 1 uM after 24 hrs using propidium iodide staining by flow cytometry
Type: functional
Conditions: not given

Row | Compound | Activity [%]
13 | CC(=O)O/N=C1/c2ccccc2C(=O)c2occc21 | 29
14 | O=C1c2ccccc2C(=O)c2occc21 | 27.4
15 | O=C1c2ccccc2/C(=N/O)c2ccoc21 | 37.7
16 | Br.NCCCO/N=C1/c2ccccc2C(=O)c2occc21 | 33.5

Tested on: K562
Experiment: Selectivity index, ratio of GI50 for human Detroit 551 cells to GI50 for human K562 cells
Type: functional
Conditions: not given

Row | Compound | RatioGI50
17 | CC[C@@]1(O)C(=O)OCc2c1cc1n(c2=O)Cc2cc3ccccc3nc2-1 [CAMPTOTHECIN] | 16.5
18 | CC(=O)O/N=C1/c2ccccc2C(=O)c2occc21 | >11.64
19 | O=C1c2ccccc2C(=O)c2occc21 | 22.82
20 | COc1cccc2c1C(=O)c1c(O)c3c(c(O)c1C2=O)C[C@@](O)(C(C)=O)C[C@@H]3O[C@H]1C[C@H](N)[C@H](O)[C@H](C)O1 [DAUNORUBICIN] | 239
21 | O=C1c2ccccc2/C(=N/O)c2ccoc21 | >121.95
22 | Br.NCCCO/N=C1/c2ccccc2C(=O)c2occc21 | 6.18

Tested on: not listed separately
Experiment: Cytotoxicity against human Detroit 551 cells after 72 hrs by XTT assay
Type: cell-based
Conditions: not given

Row | Compound | GI50 at 72 h [µM]
23 | CC[C@@]1(O)C(=O)OCc2c1cc1n(c2=O)Cc2cc3ccccc3nc2-1 [CAMPTOTHECIN] | 0.99
24 | CC(=O)O/N=C1/c2ccccc2C(=O)c2occc21 | > 100
25 | O=C1c2ccccc2C(=O)c2occc21 | 14.8
26 | COc1cccc2c1C(=O)c1c(O)c3c(c(O)c1C2=O)C[C@@](O)(C(C)=O)C[C@@H]3O[C@H]1C[C@H](N)[C@H](O)[C@H](C)O1 [DAUNORUBICIN] | 1.77
27 | O=C1c2ccccc2/C(=N/O)c2ccoc21 | > 100
28 | Br.NCCCO/N=C1/c2ccccc2C(=O)c2occc21 | 40.9

Tested on: NCI-H460
Experiment: Cytotoxicity against human NCI-H460 cells after 72 hrs by XTT assay
Type: functional
Conditions: NCI-H460, 72 h

Row | Compound | GI50 [µM]
29 | CC[C@@]1(O)C(=O)OCc2c1cc1n(c2=O)Cc2cc3ccccc3nc2-1 [CAMPTOTHECIN] | 0.03
30 | CC(=O)O/N=C1/c2ccccc2C(=O)c2occc21 | 7.46
31 | O=C1c2ccccc2C(=O)c2occc21 | 5.07
32 | COc1cccc2c1C(=O)c1c(O)c3c(c(O)c1C2=O)C[C@@](O)(C(C)=O)C[C@@H]3O[C@H]1C[C@H](N)[C@H](O)[C@H](C)O1 [DAUNORUBICIN] | 0.38
33 | O=C1c2ccccc2/C(=N/O)c2ccoc21 | 7.71
34 | Br.NCCCO/N=C1/c2ccccc2C(=O)c2occc21 | 7.19

Tested on: K562
Experiment: Cytotoxicity against human K562 cells after 72 hrs by XTT assay
Type: functional
Conditions: K562, 72 h

Row | Compound | GI50 [µM]
35 | CC[C@@]1(O)C(=O)OCc2c1cc1n(c2=O)Cc2cc3ccccc3nc2-1 [CAMPTOTHECIN] | 0.06
36 | CC(=O)O/N=C1/c2ccccc2C(=O)c2occc21 | 8.59
37 | O=C1c2ccccc2C(=O)c2occc21 | 0.65
38 | COc1cccc2c1C(=O)c1c(O)c3c(c(O)c1C2=O)C[C@@](O)(C(C)=O)C[C@@H]3O[C@H]1C[C@H](N)[C@H](O)[C@H](C)O1 [DAUNORUBICIN] | 0.0074
39 | O=C1c2ccccc2/C(=N/O)c2ccoc21 | 0.82
40 | Br.NCCCO/N=C1/c2ccccc2C(=O)c2occc21 | 6.62

Tested on: NCI-H460
Experiment: Selectivity index, ratio of GI50 for human Detroit 551 cells to GI50 for human NCI-H460 cells
Type: functional
Conditions: not given

Row | Compound | RatioGI50
41 | CC[C@@]1(O)C(=O)OCc2c1cc1n(c2=O)Cc2cc3ccccc3nc2-1 [CAMPTOTHECIN] | 33
42 | CC(=O)O/N=C1/c2ccccc2C(=O)c2occc21 | >13.4
43 | O=C1c2ccccc2C(=O)c2occc21 | 2.92
44 | COc1cccc2c1C(=O)c1c(O)c3c(c(O)c1C2=O)C[C@@](O)(C(C)=O)C[C@@H]3O[C@H]1C[C@H](N)[C@H](O)[C@H](C)O1 [DAUNORUBICIN] | 4.66
45 | O=C1c2ccccc2/C(=N/O)c2ccoc21 | >12.97
46 | Br.NCCCO/N=C1/c2ccccc2C(=O)c2occc21 | 5.69

Tested on: SF-268
Experiment: Cytotoxicity against human SF268 cells at 4 ug/ml after 48 hrs by sulforhodamine B assay relative to control
Type: functional
Conditions: not given

Row | Compound | Activity [%]
47 | CC[C@@]1(O)C(=O)OCc2c1cc1n(c2=O)Cc2cc3ccccc3nc2-1 [CAMPTOTHECIN] | 25
48 | CC(=O)O/N=C1/c2ccccc2C(=O)c2occc21 | 18
49 | O=C1c2ccccc2C(=O)c2occc21 | 16
50 | COc1cccc2c1C(=O)c1c(O)c3c(c(O)c1C2=O)C[C@@](O)(C(C)=O)C[C@@H]3O[C@H]1C[C@H](N)[C@H](O)[C@H](C)O1 [DAUNORUBICIN] | 16
51 | O=C1c2ccccc2/C(=N/O)c2ccoc21 | 16
52 | Br.NCCCO/N=C1/c2ccccc2C(=O)c2occc21 | 15

Tested on: NCI-H460
Experiment: Cytotoxicity against human NCI-H460 cells at 4 ug/ml after 48 hrs by sulforhodamine B assay relative to control
Type: functional
Conditions: not given

Row | Compound | Activity [%]
53 | CC[C@@]1(O)C(=O)OCc2c1cc1n(c2=O)Cc2cc3ccccc3nc2-1 [CAMPTOTHECIN] | 1
54 | CC(=O)O/N=C1/c2ccccc2C(=O)c2occc21 | 5
55 | O=C1c2ccccc2C(=O)c2occc21 | 2
56 | COc1cccc2c1C(=O)c1c(O)c3c(c(O)c1C2=O)C[C@@](O)(C(C)=O)C[C@@H]3O[C@H]1C[C@H](N)[C@H](O)[C@H](C)O1 [DAUNORUBICIN] | 15
57 | O=C1c2ccccc2/C(=N/O)c2ccoc21 | 5
58 | Br.NCCCO/N=C1/c2ccccc2C(=O)c2occc21 | 44

Tested on: MCF7
Experiment: Cytotoxicity against human MCF7 cells at 4 ug/ml after 48 hrs by sulforhodamine B assay relative to control
Type: functional
Conditions: not given

Row | Compound | Activity [%]
59 | CC[C@@]1(O)C(=O)OCc2c1cc1n(c2=O)Cc2cc3ccccc3nc2-1 [CAMPTOTHECIN] | 33
60 | CC(=O)O/N=C1/c2ccccc2C(=O)c2occc21 | 10
61 | O=C1c2ccccc2C(=O)c2occc21 | 1
62 | COc1cccc2c1C(=O)c1c(O)c3c(c(O)c1C2=O)C[C@@](O)(C(C)=O)C[C@@H]3O[C@H]1C[C@H](N)[C@H](O)[C@H](C)O1 [DAUNORUBICIN] | 30
63 | O=C1c2ccccc2/C(=N/O)c2ccoc21 | 10
64 | Br.NCCCO/N=C1/c2ccccc2C(=O)c2occc21 | 10

Tested on: K562
Experiment: Cell cycle arrest in human K562 cells assessed as accumulation at Sub-G1 phase at 1 uM after 24 hrs using propidium iodide staining by flow cytometry
Type: functional
Conditions: not given

Row | Compound | Activity [%]
65 | CC(=O)O/N=C1/c2ccccc2C(=O)c2occc21 | 5.82
66 | O=C1c2ccccc2C(=O)c2occc21 | 8.24
67 | O=C1c2ccccc2/C(=N/O)c2ccoc21 | 4.41
68 | Br.NCCCO/N=C1/c2ccccc2C(=O)c2occc21 | 4.19

Tested on: MCF7
Experiment: Cytotoxicity against human MCF7 cells after 72 hrs by XTT assay
Type: functional
Conditions: MCF7, 72 h

Row | Compound | GI50 [µM]
69 | CC[C@@]1(O)C(=O)OCc2c1cc1n(c2=O)Cc2cc3ccccc3nc2-1 [CAMPTOTHECIN] | 0.57
70 | CC(=O)O/N=C1/c2ccccc2C(=O)c2occc21 | 13.3
71 | O=C1c2ccccc2C(=O)c2occc21 | 5.92
72 | COc1cccc2c1C(=O)c1c(O)c3c(c(O)c1C2=O)C[C@@](O)(C(C)=O)C[C@@H]3O[C@H]1C[C@H](N)[C@H](O)[C@H](C)O1 [DAUNORUBICIN] | 0.86
73 | O=C1c2ccccc2/C(=N/O)c2ccoc21 | 12.3
74 | Br.NCCCO/N=C1/c2ccccc2C(=O)c2occc21 | 12.6

Tested on: K562
Experiment: Cell cycle arrest in human K562 cells assessed as accumulation at G2/M phase at 1 uM after 24 hrs using propidium iodide staining by flow cytometry
Type: functional
Conditions: not given

Row | Compound | Activity [%]
75 | CC(=O)O/N=C1/c2ccccc2C(=O)c2occc21 | 41.9
76 | O=C1c2ccccc2C(=O)c2occc21 | 43.2
77 | O=C1c2ccccc2/C(=N/O)c2ccoc21 | 58
78 | Br.NCCCO/N=C1/c2ccccc2C(=O)c2occc21 | 63.3

Tested on: SF-268
Experiment: Selectivity index, ratio of GI50 for human Detroit 551 cells to GI50 for human SF268 cells
Type: functional
Conditions: not given

Row | Compound | RatioGI50
79 | CC[C@@]1(O)C(=O)OCc2c1cc1n(c2=O)Cc2cc3ccccc3nc2-1 [CAMPTOTHECIN] | 5.21
80 | CC(=O)O/N=C1/c2ccccc2C(=O)c2occc21 | >12.66
81 | O=C1c2ccccc2C(=O)c2occc21 | 2.62
82 | COc1cccc2c1C(=O)c1c(O)c3c(c(O)c1C2=O)C[C@@](O)(C(C)=O)C[C@@H]3O[C@H]1C[C@H](N)[C@H](O)[C@H](C)O1 [DAUNORUBICIN] | 2.95
83 | O=C1c2ccccc2/C(=N/O)c2ccoc21 | >11.3
84 | Br.NCCCO/N=C1/c2ccccc2C(=O)c2occc21 | 4.53

Tested on: K562
Experiment: Cell cycle arrest in human K562 cells assessed as accumulation at S phase at 1 uM after 24 hrs using propidium iodide staining by flow cytometry
Type: functional
Conditions: not given

Row | Compound | Activity [%]
85 | CC(=O)O/N=C1/c2ccccc2C(=O)c2occc21 | 30.2
86 | O=C1c2ccccc2C(=O)c2occc21 | 29.4
87 | O=C1c2ccccc2/C(=N/O)c2ccoc21 | 4.4
88 | Br.NCCCO/N=C1/c2ccccc2C(=O)c2occc21 | 3.2
